According to ChEMBL document CHEMBL1806487, “Design, synthesis and docking studies on benzamide derivatives as histone deacetylase inhibitors” (Bioorg Med Chem Lett, 2011):

Tests used:
[1] = Inhibition of HDAC by fluorescence assay
[2] = system: DU-145; assay: Anticancer activity against human DU145 cells after 72 hrs by MTT assay; assay type: functional
[3] = system: DU-145; assay: Ratio of MS-275 GI to compound GI for human DU145 cells; assay type: functional
[4] = system: A2780; assay: Anticancer activity against human A2780 cells after 72 hrs by MTT assay; assay type: functional
[5] = system: MDA-MB-231; assay: Anticancer activity against human MDA-MB-231 cells after 72 hrs by MTT assay; assay type: functional
[6] = system: HCT-116; assay: Anticancer activity against human HCT116 cells after 72 hrs by MTT assay; assay type: functional
[7] = Ratio of MS-275 IC50 to compound IC50 to for HDAC

Row | IC50 [1] | SMILES | GI [2] | GI [4] | also measured
1 | 50.2 µM | Nc1ccc(C(=O)NCC(=O)c2ccc(C(=O)Nc3ccccc3N)cc2)cc1 | – | – | –
2 | > 100 µM | Nc1ccccc1NC(=O)c1ccc(C(=O)CNC(=O)c2ccccc2)cc1 | – | – | –
3 | 70.7 µM | Nc1cccc(C(=O)NCC(=O)c2ccc(C(=O)Nc3ccccc3N)cc2)c1 | – | – | –
4 | 42.6 µM | Nc1cc(C(=O)NCC(=O)c2ccc(C(=O)Nc3ccccc3N)cc2)ccn1 | – | – | –
5 | 30.2 µM | Nc1ccccc1NC(=O)c1ccc(C(=O)CNC(=O)c2ccccn2)cc1 | – | – | –

More lines, now with the values behind:

Row | SMILES | IC50 [1] | GI [2] | GI [4] | also measured
6 | Nc1ccccc1NC(=O)c1ccc(C(=O)CNS(=O)(=O)c2cccnc2Cl)cc1 | 11.1 µM | – | – | –
7 | Nc1ccc(S(=O)(=O)NCC(=O)c2ccc(C(=O)Nc3ccccc3N)cc2)cc1 | 3.8 µM | 0.16 µM | 5.7 µM | Ratio [3]: 50
8 | Nc1ccccc1NC(=O)c1ccc(CNC(=O)OCc2cccnc2)cc1 [ENTINOSTAT] | 13 µM | 7.9 µM | 5.7 µM | GI [5]: 2.8 µM; GI [6]: 3.1 µM
9 | Cc1ccc(S(=O)(=O)NCC(=O)c2ccc(C(=O)Nc3ccccc3N)cc2)cc1 | 22.4 µM | 37.7 µM | >100 µM | GI [5]: 18.4 µM; GI [6]: 18.7 µM; Ratio IC50 [7]: 4
